Source: US7705049B2, “Methods for treating non-melanoma cancers with PABA” (New York University, priority 2004, dated 2010)

Assays:
[1] = test system: stage II or stage III breast cancer; details: cited from earlier work
[2] = test system: hormone receptor-positive tumors; details: 3-year; cited from earlier work
[3] = test system: SKOV-3 ovarian carcinoma cells; experiment: MTT proliferation assay, SKOV-3 cells; assay type: cell-based; details: topotecan 0.1 uM alone, compared to untreated controls
Experimental: Similarly, SKOV-3 ovarian carcinoma cells were incubated with or without PABA at 0.1 mg/ml in DMEM for 3 days and subsequently exposed to topotecan at concentrations of 0, 0.1, 0.5 and 2.0 μM, and ^90Y-huBrE-3 at concentrations of 0, 1.0, 2.0, and 4.0 μCi, and evaluated using an MTT assay after 72 hrs.

[4] = cited from earlier work
G361 melanoma cells = experiment: Cell cycle analysis by flow cytometry, G361; assay type: cell-based; details: PABA 100 μg/ml 2 weeks, untreated 12%
Experimental: (§1) G361 melanoma cells and 4T1 breast cancer cells were cultured in the presence or absence of PABA (100 μg/ml) for 2 weeks. The tumor cells were synchronized by serum starvation and cultured for 2 hours in 10% serum-containing medium. The cells were harvested, washed, fixed and stained with propidium iodide. Cell cycle analysis was performed by flow cytometry. The relative levels of untreated G361 cells (12%) and 4T1 cells (10%) in S-phase were low compared. FIG. 9. In contrast, 72% of PABA-treated G361 cells and 40% of PABA-treated 4T1 cells were in S-phase.

[5] = test system: cell cycle control genes in B16F10 and G361 melanoma cells; experiment: AFFYMATRIX cDNA array analysis of tumor cells; assay type: cell-based, human and mouse; details: PABA 100 μg/ml
Experimental: (§2) An AFFYMATRIX™ based cDNA array analysis was performed on tumor cells cultured in the presence or absence of PABA (100 μg/ml). A number of genes within the tumor cells were differentially expressed following PABA treatment. Experiments were conducted on genes that were consistently altered in both human and mouse tumor cells. […] To confirm these findings, the expression of CDC25A was analyzed. 4T1 breast carcinoma cells and B16F10 melanoma cells were incubated in the presence or absence of PABA. After 7 days, the RNA was isolated. The relative levels of CDC25A mRNA were examined by RT-PCR or real time PCR. FIG. 8.

[6] = test system: 4T1 breast carcinoma cells; experiment: Subcutaneous 4T1 breast tumor growth and lung metastasis in mice; assay type: in vivo
Experimental: Sub-confluent cultures of 4T1 breast carcinoma cells were harvested, washed and resuspended in PBS. Female nude mice or Balb/c strain mice were injected subcutaneously with approximately 1×10^6 tumor cells. Subcutaneous tumors were allowed to grow for 7 days, at which time the mice were treated daily by intraperitoneal injections of the following: • PABA alone (500 μg/mouse) • Radiation alone (9.0 Gy) • PABA and radiation • Docetaxel (8.0 mg/kg 1 time/week, intraperitoneal administration) • PABA and docetaxel (daily PABA and intraperitoneal administration of 8.0 mg/kg docetaxel 1 time/week) Untreated mice were used as a control. Tumor growth was gauged by weekly caliper measurements. After 28 days, the mice were sacrificed and tumor volumes were calculated by standard methods using the formula […], where V=volume, L=length and W=width.

[7] = test system: Lewis Lung carcinoma cells; details: cited from earlier work
CDC25A = experiment: Western blot, CDC25A; assay type: cell-based; details: G361 melanoma cells; 2 weeks with PABA
Experimental: (§3) Western blot analysis was performed to confirm the altered expression of CDC25A, c-Myc and BRCA-2 at the protein level. G361 melanoma cells were cultured for 2 weeks in the presence or absence of PABA. The cells were harvested and lysed in 1.0% Triton-X-100 lysis buffer. Equal amounts of total cell lysates (50 μg/lane) were separated by 10% SDS PAGE and the proteins were transferred to nitrocellulose membranes. The membranes were probed with monoclonal antibodies P4C10 (anti-β1 integrin), 3303 (anti-BRCA-2) and Ab-3 (anti-CDC25A) or secondary antibody only. […] BRCA-2 expression was decreased in cells treated with PABA compared to cells grown in the absence of PABA. […] In similar studies, c-Myc expression in 4T1 breast carcinoma cells and G361 melanoma cells was examined by Western blot. The nitrocellulose membranes were probed with anti-c-Myc monoclonal antibody 9402 (available from Cell Signaling Technology, Beverly, Mass.) and anti-actin monoclonal antibody. […] No change in actin levels was observed.

actin = experiment: Western blot, actin; assay type: cell-based
Experimental: as §3
P21^CIP1 is a cell cycle dependent kinase inhibitor, which has a role in regulating the sensitivity of breast cancer cells to chemotherapeutic agents such as TAXOL®. 4T1 breast cancer cells were incubated in the presence or absence of PABA (100 μg/ml) for 7 days. The cells were washed and cell lysates were prepared. Levels of P21^CIP1 were analyzed by Western blot. […]

β1 integrin subunit = experiment: Western blot, β1 integrin; assay type: cell-based; details: G361 melanoma cells; 2 weeks with PABA
Experimental: as §3

[8] = test system: murine 4T1 breast carcinoma cells; experiment: Chick embryo CAM tumor growth, 4T1 breast carcinoma; assay type: in vivo, chick embryos; details: 4T1 on CAM; PABA 100 ug/ml; 7 days
Experimental: (§4) Lewis Lung carcinoma cells and murine 4T1 breast carcinoma cells (available from American Type Culture Collection, Rockville, MD-No. CRL-2539), were cultured in growth medium in the presence or absence of PABA (100 ug/ml) for at least 7 days. The cells were harvested, washed and resuspended in sterile PBS, followed by implantation on the chorioallantoic membranes (CAM) of 10-day old chick embryos. Embryos were allowed to incubate for 24 hours. The embryos were then treated with either a single fraction dose of ionizing radiation (5.0 Gy) or TAXOL® (0.01 μM) and allowed to incubate for 7 days. Tumor growth was assessed by measuring the wet weights of resected tumors (5-10 tumors per condition).

[9] = test system: H460 non-small cell lung cancer cells; experiment: Reactive oxygen species by FACS; assay type: cell-based; details: PABA 100 μg/ml
Experimental: H460 non-small cell lung cancer cells were grown in the presence or absence of PABA (100 μg/ml) in RPMI-1640 media containing 10% fetal calves serum, 1% penn/strep and 1% NaPyruvate. After 24 hours, a portion of the cells were exposed to 0.01 bortezomib (10 nM) for an additional 24 hours. […] The cells were monitored for ROS by the addition of dihydrothidine at a concentration of 5 μM for 15 minutes followed by fixation in ethanol and analysis by FACS. […] FIG. 10. Cells treated with PABA and bortezomib had about a 2 fold increase in ROS compared to cells treated with bortezomib alone.

melanogenesis = details: in vitro and in vivo, alone or in combination with chemotherapy or radiation therapy; cited from earlier work
[10] = test system: Lewis Lung carcinoma cells; experiment: Chick embryo CAM tumor growth, Lewis Lung carcinoma; assay type: in vivo, chick embryos; details: PABA 100 ug/ml, TAXOL 0.01 μM, 7 days
Experimental: as §4, with “days.” for “days. Tumor growth was assessed by measuring the wet weights of resected tumors (5-10 tumors per condition).”

CDC25A mRNA = CDC25A mRNA by RT-PCR; assay type: cell-based; details: 7 days
Experimental: as §2

BRCA-2 = experiment: Western blot, BRCA-2; assay type: cell-based; details: G361 melanoma cells; 2 weeks with PABA
Experimental: as §3

c-Myc = experiment: Western blot, c-Myc; assay type: cell-based
Experimental: as §3

4T1 breast cancer cells = experiment: Cell cycle analysis by flow cytometry, 4T1; assay type: cell-based; details: PABA 100 μg/ml 2 weeks, untreated 10%
Experimental: as §1

P21^CIP1 = experiment: Western blot, P21^CIP1; assay type: cell-based; details: 4T1 breast cancer cells; PABA 100 μg/ml 7 days
Experimental: P21^CIP1 is a cell cycle dependent kinase inhibitor, which has a role in regulating the sensitivity of breast cancer cells to chemotherapeutic agents such as TAXOL®. 4T1 breast cancer cells were incubated in the presence or absence of PABA (100 μg/ml) for 7 days. The cells were washed and cell lysates were prepared. Levels of P21^CIP1 were analyzed by Western blot. Equal amounts (50 μg/lane) were separated by SDS PAGE and transferred to nitrocellulose membranes. The membranes were probed with anti-P21^CIP1 or anti-actin monoclonal antibodies.

MCF-7 xenograft = details: subtherapeutic doses; cited from earlier work
[11] = test system: reactive oxygen species (ROS); details: 100 nM, 24 hours exposure; cited from earlier work
[12] = test system: MCF7 breast carcinoma cells; experiment: MTT proliferation assay, MCF7 cells; assay type: cell-based; details: Homo sapiens, PABA 0.1 mg/ml 3 days, 5-FU 1 μM, ^90Y-huBrE-3 1 μCi, MTT after 72 hours
Experimental: Pharmaceutical grade ^90Y was buffered in 0.05M acetate and incubated with MX-DTPA-huBrE-3 and 5 mM EDTA for 1 hr, followed by purification on a Bio-Gel P6 column eluted with 1% human serum albumin to generate radiolabeled ^90Y-huBrE-3 antibody. MCF7 breast carcinoma cells were incubated with and without PABA (0.1 mg/ml) in DMEM media for 3 days, and then exposed to 5-fluorouracil (5-FU) in concentrations of 0, 0.05, 0.1, 1.0 and 5.0 μM, and concentrations of ^90Y-huBrE-3 in concentrations of 0, 1.0, 2.0, and 4 μCi. Effects on proliferation were monitored after 72 hours using a commercially available MTT assay.

Structure (SMILES): CC/C(=C(\c1ccccc1)c1ccc(OCCN(C)C)cc1)c1ccccc1 [tamoxifen]
- overall survival ([1]; at 10 years): 36%
- local-regional recurrence ([1]; median follow-up of 10 years, tamoxifen 30 mg daily for 1 year): 35%
- disease-free survival [2]: 67%
- overall survival [2]: 85%

Structure (SMILES): CC[C@@]1(O)C(=O)OCc2c1cc1n(c2=O)Cc2cc3c(CN(C)C)c(O)ccc3nc2-1 [topotecan]
- inhibition of proliferation [3]: minimally

Structure (SMILES): Nc1ccc(C(=O)O)cc1 [PABA, p-amino-benzoic acid]
- time of peak plasma concentration after ingestion ([4]; after ingestion): about ¾
- mean half life ([4]; in vivo): about 0.5 hours
- cells in S-phase (G361 melanoma cells): 72%
- BRCA-2 gene expression [5]: down-regulated
- H2A histone gene expression [5]: down-regulated
- H2B histone gene expression [5]: down-regulated
- P21^CIP1 gene expression [5]: down-regulated
- reduction of mean tumor volume compared to untreated control mice ([6]; PABA 500 μg/mouse daily i.p., radiation 9.0 Gy, 28 days (FIG. 4)): about 26%
- in vitro proliferation of Lewis Lung carcinoma cells [7]: inhibit the in vitro proliferation
- CDC25A protein expression (CDC25A): markedly increased
- actin levels (actin; 4T1 and G361 cells, c-Myc blots): No change
- level of actin (actin; 4T1 breast cancer cells, PABA 100 μg/ml 7 days): Little change
- β1 integrin subunit expression (β1 integrin subunit): no change
- effect on 4T1 breast carcinoma tumor growth [8]: Neither PABA alone nor a single fraction dose of ionizing radiation had any effect
- increase in ROS compared to untreated cells [9]: 3 fold
- melanogenesis (melanogenesis): inhibits melanogenesis
- effect on growth of Lewis Lung tumors [10]: neither PABA nor TAXOL® alone inhibited the growth
- increase in levels of CDC25A mRNA compared to untreated controls (CDC25A mRNA; 4T1 breast carcinoma cells): about 2 fold
- increase in levels of CDC25A mRNA compared to untreated controls (CDC25A mRNA; B16F10 melanoma cells): about 2 fold
- BRCA-2 protein expression (BRCA-2): decreased
- c-Myc protein expression (c-Myc; 4T1 cells): significant up-regulation
- c-Myc protein expression (c-Myc; G361 cells): significant up-regulation
- cells in S-phase (4T1 breast cancer cells): 40%
- levels of P21^CIP1 (P21^CIP1): significantly reduced

Structure (SMILES): CC(=O)O[C@@]12CO[C@@H]1C[C@H](O)[C@@]1(C)C(=O)[C@H](O)C3=C(C)[C@@H](OC(=O)[C@H](O)[C@@H](NC(=O)OC(C)(C)C)c4ccccc4)C[C@@](O)([C@@H](OC(=O)c4ccccc4)[C@H]21)C3(C)C [docetaxel, reference compound]
- reduction of tumor growth ([6]; docetaxel 8.0 mg/kg 1 time/week i.p., PABA 500 μg/mouse daily, 28 days (FIG. 3)): ~45%

Structure (SMILES): CC(=O)O[C@H]1C(=O)[C@@]2(C)[C@H]([C@H](OC(=O)c3ccccc3)[C@]3(O)C[C@H](OC(=O)[C@H](O)[C@@H](NC(=O)c4ccccc4)c4ccccc4)C(C)=C1C3(C)C)[C@]1(OC(C)=O)CO[C@@H]1C[C@@H]2O [TAXOL®, paclitaxel, reference compound]
- responses with either treatment modality alone (MCF-7 xenograft): no responses
- effect on growth of Lewis Lung tumors [10]: neither PABA nor TAXOL® alone inhibited the growth

Structure (SMILES): CC(C)C[C@H](NC(=O)[C@H](Cc1ccccc1)NC(=O)c1cnccn1)B(O)O [bortezomib]
- induction of reactive oxygen species (ROS) [11]: actively induce reactive oxygen species (ROS)

Structure (SMILES): O=c1[nH]cc(F)c(=O)[nH]1 [5-FU, 5-fluorouracil]
- inhibition at 1 µM [12]: ~25%
